This note sets out measurements from patent US5057520A, “7-(peptidylpyrolidinyl)naphthyridine antibacterial compounds” (Abbott Laboratories, priority 1989, dated 1991).

≈ marks a conversion by molar mass, not a printed value. Structures can show the parent of a compound that is named as a salt.

One series deals with P. Aeruginosa A5007. Nature of the series: Acute mouse protection test. The class given is in vivo. The following applies: mice infected i.p. with P. Aeruginosa A5007, observed 7 days; for SC (ED50): SC dosing at 1 and 5 hours post-infection; for Oral (ED50): oral dosing at 1 and 5 hours post-infection.
The subject of a further series is Stap. Aureus NCTC 10649. Nature of the series: Acute mouse protection test. The series is classed as in vivo. The following applies: mice infected i.p. with Stap. Aureus NCTC 10649, observed 7 days; for SC (ED50): SC dosing at 1 and 5 hours post-infection; for Oral (ED50): oral dosing at 1 and 5 hours post-infection.
Series [1] in a line: Conversion of prodrug to parent drug in whole blood at 37° C. The series is classed as in vitro ADME, Dog. As to the method:
An aqueous solution of prodrug (Z) is spiked into fresh whole blood containing sodium heparin as an anticoagulant. The sample is mixed gently by inversion and placed in a 37° waterbath. At selected time intervals an 0.5 ml aliquot of blood is removed and placed in a chilled 1.5 ml centrifuge tube (ice temperature). Samples are centrifuges at 13,000 rpm for two minutes to separate plasma. An 0.2 ml aliquot of the plasma sample is combined with 0.2 ml internal standard (7-(4-amino-2-methyl-1-pyrrolidinyl)-1-(2,4-difluorophenyl)-6-fluoro-1,4-d ihydro-4-oxo-1,8-naphthyridine-3-carboxylic acid in 0.2M sodium phosphate pH 7.2 buffer) and 6 mls CH2 Cl2 :EtoH (9:1 by volume). Samples are capped and shaken gently for 10 minutes. Samples are centrifuges at 2500 rpm for 10 minutes (4° C.). The aqueous layer is aspirated to waste and the organic layer is transferred to a conical centrifuge tube and evaporated to dryness with a stream of dry air and low heat ([…]). Samples are reconstituted with 0.2 ml mobile phase followed by vortexing. Samples are centrifuges at 2500 rpm for 10 minutes to separate precipitate. The supernatant is transferred to a WISP vial with plastic insert for HPLC analysis.

Series [2] relates to E. Coli Juhl. Nature of the series: Second in vitro MIC test, Brain Heart Infusion Broth (BHIB). The series is classed as cell-based.
For series [3], the system named is E. Coli Juhl. Nature of the series: Acute mouse protection test. The class given is in vivo. The following applies: mice infected i.p. with E. Coli JUHL, observed 7 days; for SC (ED50): SC dosing at 1 and 5 hours post-infection; for Oral (ED50): oral dosing at 1 and 5 hours post-infection.
A further series deals with Strep. pyogenes EES 61. Nature of the series: Second in vitro MIC test, Brain Heart Infusion Broth (BHIB). The class given is cell-based.
For the next series, the system named is Ps. Aeruginosa A5007. Described as above. The series is classed as cell-based.

As for `CC(C)C(N)C(=O)NC1CCN(c2nc3c(cc2F)c(=O)c(C(=O)O)cn3-c2ccc(F)cc2F)C1` (stereo not shown) [Example 19], the “Solubility pH 7.4” value is recorded as 0.41 mg/ml.
`CCCC(N)C(=O)NC1CCN(c2cc3c(cc2F)c(=O)c(C(=O)O)cn3-c2ccc(F)cc2F)C1` (stereo not shown) [Example 26b]: the “SC (ED50)” value in the series on P. Aeruginosa A5007 was 6.7 mg/kg/day; in the series on Stap. Aureus NCTC 10649, 0.8 mg/kg/day. The entries for the “Oral (ED50)” value in the series on P. Aeruginosa A5007 and in the series on Stap. Aureus NCTC 10649 were 18.2 mg/kg/day and 27.9 mg/kg/day, respectively. Besides, the “Half Life Dog” value in series [1] came to 0.723 min.
For `CCC[C@H](N)C(=O)NC1CCN(c2nc3c(cc2F)c(=O)c(C(=O)O)cn3CC)C1` (stereo partly shown) [Example 26ff], in the series with P. Aeruginosa A5007, the “SC (ED50)” value is recorded as 10.3 mg/kg/day and the “Oral (ED50)” value is 30.5 mg/kg/day. Moreover, in series [1], the “Half Life Dog” value is 1.54 min.
`CCCC(N)C(=O)NC1CCN(c2cc3c(cc2F)c(=O)c(C(=O)O)cn3-c2ccc(F)cc2)C1` (stereo not shown) [Example 26h] came in with an MIC in the series with E. Coli Juhl [2] of 0.78 µg/mL (≈ 1.61 µM). Moreover, the figures for the “SC (ED50)” value in the series on E. Coli Juhl [3], in the series on P. Aeruginosa A5007 and in the series with Stap. Aureus NCTC 10649 were 0.8 mg/kg/day, 8.5 mg/kg/day and 1.0 mg/kg/day, respectively. Further, the figures for the “Oral (ED50)” value in the series on E. Coli Juhl [3], in the series with P. Aeruginosa A5007 and in the series with Stap. Aureus NCTC 10649 were 12.1 mg/kg/day, 101.3 mg/kg/day and 4.0 mg/kg/day, respectively. The “Half Life Dog” value in series [1] came out at 0.852 min.
In the series on Strep. pyogenes EES 61, `CCCC(N)C(=O)NC1CCN(c2nc3c(cc2F)c(=O)c(C(=O)O)cn3-c2ccc(F)cc2)C1` (stereo not shown) [Example 26i] had an MIC of 1.56 µg/mL (≈ 3.21 µM). Also, in the series on Stap. Aureus NCTC 10649, the “SC (ED50)” value is on record as 0.7 mg/kg/day and the “Oral (ED50)” value is listed as 5.3 mg/kg/day. Besides, in series [1], the “Half Life Dog” value came to 1.802 min.
Take `Cl.NCC(=O)N[C@@H](Cc1ccccc1)C(=O)NC1CCN(c2cc3c(cc2F)c(=O)c(C(=O)O)cn3-c2ccc(F)cc2F)C1` (stereo partly drawn) [Example 26jj, 1-(2,4-Difluorophenyl)-6-Fluoro-7-(3-Gly-L-Phe-Amino-1-Pyrrolidinyl)-1,4-Di hydro-4-Oxo-Quinoline-3-Carboxylic Acid Hydrochloride]: the MIC with E. Coli Juhl [2] was determined as 16 µg/mL.
With `CCCC(N)C(=O)NC1CCN(c2cc3c(cc2F)c(=O)c(C(=O)O)cn3C2CC2)C1` (stereo not shown) [Example 26l], the “SC (ED50)” value in the series on E. Coli Juhl [3] was found to be 0.5 mg/kg/day; in the series with P. Aeruginosa A5007, 2.8 mg/kg/day; with Stap. Aureus NCTC 10649, 4.0 mg/kg/day. Further, the “Oral (ED50)” value was 9.4 mg/kg/day with E. Coli Juhl [3] and 18.2 mg/kg/day with P. Aeruginosa A5007. For the same compound, the “Half Life Dog” value in series [1] is 1.975 min.
Regarding `CC(C)CC(N)C(=O)NC1CCN(c2nc3c(cc2F)c(=O)c(C(=O)O)cn3C2CC2)C1` (stereo not shown) [Example 26o], the “SC (ED50)” value in the series with E. Coli Juhl [3] stood at 0.2 mg/kg/day; in the series on P. Aeruginosa A5007 it was 3.9 mg/kg/day; with Stap. Aureus NCTC 10649, 1.0 mg/kg/day. In addition, the entries for the “Oral (ED50)” value in the series with E. Coli Juhl [3], in the series with P. Aeruginosa A5007 and in the series with Stap. Aureus NCTC 10649 were 1.2 mg/kg/day, 6.2 mg/kg/day and 4.0 mg/kg/day, respectively. Moreover, in series [1], the “Half Life Dog” value worked out at 1.81 min.
For `CCCC(N)C(=O)NC1CCN(c2nc3c(cc2F)c(=O)c(C(=O)O)cn3C2CC2)C1` (stereo not shown) [Example 26p], in the series on P. Aeruginosa A5007, the “SC (ED50)” value was 2.8 mg/kg/day and the “Oral (ED50)” value worked out at 9.1 mg/kg/day. For the same compound, in the series on Stap. Aureus NCTC 10649, the “SC (ED50)” value amounted to 6.8 mg/kg/day and the “Oral (ED50)” value turned out to be 4.5 mg/kg/day. Besides, the “Half Life Dog” value in series [1] is 1.17 min.
Consider `CCCC(N)C(=O)NC1CCN(c2c(F)cc3c(=O)c(C(=O)O)cn(C4CC4)c3c2F)C1` (stereo not shown) [Example 26r], for which the “SC (ED50)” value in the series with E. Coli Juhl [3] came to 0.2 mg/kg/day; with P. Aeruginosa A5007 it was 2.7 mg/kg/day; in the series with Stap. Aureus NCTC 10649, 0.9 mg/kg/day. In addition, the figures for the “Oral (ED50)” value in the series with E. Coli Juhl [3], in the series on P. Aeruginosa A5007 and in the series on Stap. Aureus NCTC 10649 were 2.3 mg/kg/day, 7.3 mg/kg/day and 3.0 mg/kg/day, respectively. Also, in series [1], the “Half Life Dog” value turned out to be 1.2 min.
On to `CC(N)C(=O)NC1CCN(c2c(F)cc3c(=O)c(C(=O)O)cn(C4CC4)c3c2F)C1` (stereo not shown) [Example 26s], for which the “SC (ED50)” value in the series with E. Coli Juhl [3] came out at 0.1 mg/kg/day; in the series on P. Aeruginosa A5007, 2.4 mg/kg/day; in the series with Stap. Aureus NCTC 10649 it was 1.3 mg/kg/day. In addition, the “Oral (ED50)” value is listed as 1.8 mg/kg/day in the series on E. Coli Juhl [3], 5.0 mg/kg/day in the series with P. Aeruginosa A5007 and 4.8 mg/kg/day with Stap. Aureus NCTC 10649.
`CS(=O)(=O)CC[C@H](N)C(=O)NC1CCN(c2nc3c(cc2F)c(=O)c(C(=O)O)cn3-c2ccc(F)cc2F)C1` (stereo partly drawn) [Example 31c, 7-[3-L-Methioninesulfone-Amino-1-Pyrrolidinyl]-1-(2,4-Difluorophenyl)-6-Flu oro-1,4-Dihydro-4-Oxo 1.8-Naphthyridine-3-Carboxylic Acid Hydrochloride] registered an MIC with Strep. pyogenes EES 61 of 25 µg/mL. Moreover, the “SC (ED50)” value turned out to be 0.2 mg/kg/day in the series on E. Coli Juhl [3], 2.4 mg/kg/day with P. Aeruginosa A5007 and 0.5 mg/kg/day in the series on Stap. Aureus NCTC 10649. Besides, the “Oral (ED50)” value came out at 1.8 mg/kg/day in the series with E. Coli Juhl [3], 7.8 mg/kg/day in the series with P. Aeruginosa A5007 and 1.8 mg/kg/day in the series on Stap. Aureus NCTC 10649.
With `NC(=O)C[C@H](N)C(=O)NC1CCN(c2nc3c(cc2F)c(=O)c(C(=O)O)cn3-c2ccc(F)cc2F)C1` (stereo partly drawn) [Example 41, 7-(3-L-Asparagine-amino-1-pyrrolidinyl)-1-(2,4-difluorophenyl)-6-fluoro-1,4-dihydro-4-oxo-1,8-naphthyridine-3-carboxylic acid hydrochloride], in the series with P. Aeruginosa A5007, the “SC (ED50)” value is given as 2.8 mg/kg/day and the “Oral (ED50)” value amounted to 17.2 mg/kg/day. In addition, in the series on Stap. Aureus NCTC 10649, the “SC (ED50)” value was found to be 0.7 mg/kg/day and the “Oral (ED50)” value stood at 2.9 mg/kg/day.
In turn, `N[C@@H](Cc1cnc[nH]1)C(=O)NC1CCN(c2nc3c(cc2F)c(=O)c(C(=O)O)cn3-c2ccc(F)cc2F)C1` (stereo partly drawn) [Example 44c, 7-(3-L-histidine-amino-1-pyrrolidinyl)-1-(2,4-difluorophenyl)-6-fluoro-1,4-dihydro-4-oxo-1,8-naphthyridine-3-carboxylic acid hydrochloride] came in with an MIC against Ps. Aeruginosa A5007 of over 64 µg/mL. In the series on P. Aeruginosa A5007, the “SC (ED50)” value is given as 8.3 mg/kg/day and the “Oral (ED50)” value was 51.3 mg/kg/day. In addition, in the series on Stap. Aureus NCTC 10649, the “SC (ED50)” value is 0.7 mg/kg/day and the “Oral (ED50)” value was found to be 4.0 mg/kg/day.
For the compound `N[C@@H](CC(=O)O)C(=O)NC1CCN(c2nc3c(cc2F)c(=O)c(C(=O)O)cn3-c2ccc(F)cc2F)C1` (stereo partly drawn) [Example 45, 7-(3-L-Asp-amino-1-pyrrolidinyl)-1-(2,4-difluorophenyl)-6-fluoro-1,4-dihyd ro-4-oxo-1,8-naphthyridine-3-carboxylic acid hydrochloride], the “Solubility pH 7.4” value stood at 2.40 mg/ml. In the series on P. Aeruginosa A5007, the “SC (ED50)” value was 6.6 mg/kg/day and the “Oral (ED50)” value was determined as 13.0 mg/kg/day. Moreover, in the series with Stap. Aureus NCTC 10649, the “SC (ED50)” value is listed as 0.7 mg/kg/day and the “Oral (ED50)” value was 1.5 mg/kg/day.
Consider `CSCC[C@H](NC(=O)[C@H](C)N)C(=O)NC1CCN(c2nc3c(cc2F)c(=O)c(C(=O)O)cn3-c2ccc(F)cc2F)C1` (stereo partly drawn) [Example 55n, 7-(3-Ala-Met-amino-1-pyrrolidinyl)-6-fluoro-1-(2,4-difluorophenyl)-1,4-dih ydro-4-oxo-1,8-naphthyridine-3-carboxylic acid], for which the “Solubility pH 7.4” value is reported as 2.50 mg/ml.
Same read-out and setting: under `CSCC[C@H](NC(=O)[C@@H](N)CCSC)C(=O)NC1CCN(c2nc3c(cc2F)c(=O)c(C(=O)O)cn3-c2ccc(F)cc2F)C1` (stereo partly drawn) [Example 55o, 7-(3-Met-Met-amino-1-pyrrolidinyl)-6-fluoro-1-(2,4-difluorophenyl)-1,4-dih ydro-4-oxo-1,8-naphthyridine-3-carboxylic acid] stands 0.31 mg/ml; under `CSCC[C@H](NC(=O)[C@@H](N)CC(C)C)C(=O)NC1CCN(c2nc3c(cc2F)c(=O)c(C(=O)O)cn3-c2ccc(F)cc2F)C1` (stereo partly drawn) [Example 55p, 7-(3-Leu-Met-amino-1-pyrrolidinyl)-6-fluoro-1-(2,4-difluorophenyl)-1,4-dih ydro-4-oxo-1,8-naphthyridine-3-carboxylic acid], 0.06 mg/ml; under `CC(C)C[C@H](NC(=O)[C@@H](N)CC(C)C)C(=O)NC1CCN(c2nc3c(cc2F)c(=O)c(C(=O)O)cn3-c2ccc(F)cc2F)C1` (stereo partly drawn) [Example 55q, 7-(3 Leu-Leu-amino-1-pyrrolidinyl)-6-fluoro-1-(2,4-difluorophenyl)-1,4-dihydro- 4-oxo-1,8-naphthyridine-3-carboxylic acid], 0.19 mg/ml.
Same read-out and setting: for `CC(C)C[C@H](NC(=O)[C@H](C)N)C(=O)NC1CCN(c2nc3c(cc2F)c(=O)c(C(=O)O)cn3-c2ccc(F)cc2F)C1` (stereo partly drawn) [Example 55r, 7-(3-Ala-Leu-amino-1-pyrrolidinyl)-6-fluoro-1-(2,4-difluorophenyl)-1,4-dih ydro-4-oxo-1,8-naphthyridine-3-carboxylic acid] the value was 2.0 mg/ml.
